A word on the IC50: it is the concentration that inhibits the measured activity by half.

Where only a bound is given, the exact number is not on record here.

In assay [1] the target is Recombinant human KAT6A protein (497-780) (Homo sapiens (Human), UniProt Q92794). Description: KAT6A biochemical TR-FRET assay. The note with it: histone H4 peptide 2000 nM, AcCoA 300 nM, enzyme 5 nM. A general note: Time-resolved FRET reads energy transfer from a long-lived donor to a nearby acceptor.
For assay [2], the target named is Recombinant human KAT6B protein (657-1069) (Homo sapiens (Human), UniProt Q8WYB5). The experiment in a line: KAT6B biochemical TR-FRET assay. Particulars: histone H4 peptide 1000 nM, AcCoA 100 nM, enzyme 5 nM.
Recombinant human KAT6B protein (657-1069), sequence (Q8WYB5 657-1069): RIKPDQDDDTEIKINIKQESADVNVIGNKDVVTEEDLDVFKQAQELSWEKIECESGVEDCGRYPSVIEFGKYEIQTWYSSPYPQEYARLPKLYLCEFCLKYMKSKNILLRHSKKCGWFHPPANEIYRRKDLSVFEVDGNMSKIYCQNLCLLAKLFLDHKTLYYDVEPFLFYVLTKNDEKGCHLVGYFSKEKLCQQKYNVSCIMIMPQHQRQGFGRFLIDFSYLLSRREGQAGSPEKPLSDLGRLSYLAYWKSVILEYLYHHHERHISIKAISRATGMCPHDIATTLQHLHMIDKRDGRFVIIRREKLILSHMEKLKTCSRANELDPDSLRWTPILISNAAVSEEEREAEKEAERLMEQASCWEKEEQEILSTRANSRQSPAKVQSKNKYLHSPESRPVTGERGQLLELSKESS
The subject of assay [3] is histone H3K23 acetylation in U-2 OS cells. Description: Histone H3 lysine 23 acetylation assay in U-2 OS cells (high content analysis). In kind it is cell-based. The note with it: 24 hrs exposure, H3K23ac level. Put shortly: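 U-2 OS cells seeded overnight, then exposed 24 h to a 9-point compound dilution series; 0.1% DMSO medium as blank. Fixed, permeabilised, stained with anti-H3K23ac plus Alexa Fluor 647 secondary and DAPI; nuclear H3K23ac intensity read by high-content imaging. Inhibition = mean per-well cell intensity relative to on-plate blanks.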

Recombinant human KAT6A protein (497-780), sequence (Q92794 497-780): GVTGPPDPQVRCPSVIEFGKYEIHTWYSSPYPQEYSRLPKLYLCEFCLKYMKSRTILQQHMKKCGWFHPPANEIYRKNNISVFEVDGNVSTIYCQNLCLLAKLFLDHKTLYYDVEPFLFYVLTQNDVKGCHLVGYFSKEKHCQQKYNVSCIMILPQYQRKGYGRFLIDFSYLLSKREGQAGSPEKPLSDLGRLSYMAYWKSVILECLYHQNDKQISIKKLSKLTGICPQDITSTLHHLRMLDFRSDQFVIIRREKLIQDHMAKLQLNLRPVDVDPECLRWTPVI

As for `C=Cc1cc(C(=O)NS(=O)(=O)c2c(OC)ccc3c2OCC3(C)C)ccc1Cn1cccn1` [Example C50, 4-((1H-pyrazol-1-yl)methyl)-N-((6-methoxy-3,3-dimethyl-2,3-dihydrobenzofuran-7-yl)sulfonyl)-3-vinylbenzamide], the IC50 was no more than 5 nM in assay [1]; no more than 5 nM in assay [2]; no more than 10 nM in assay [3] (Homo sapiens, U2OS).

On to `COc1cc(C(=O)NS(=O)(=O)c2nc(C(C)(C)C)ccc2OC)ccc1Cn1cc(N)cn1` [Example C38], for which the IC50 is no more than 5 nM in assay [1], no more than 5 nM in assay [2] and no more than 10 nM in assay [3].

Take `COc1ccc(C2(C)CCC2)cc1S(=O)(=O)NC(=O)c1ccc(Cn2cccn2)c(OC)n1` [Example C76, 5-((1H-pyrazol-1-yl)methyl)-6-methoxy-N-((2-methoxy-5-(1-methylcyclobutyl)phenyl)sulfonyl) picolinamide]: the IC50 in assay [1] was no more than 5 nM; in assay [2], no more than 5 nM; in assay [3] (Homo sapiens, U2OS), no more than 10 nM.

As for `COc1cc(C(=O)NS(=O)(=O)c2c(OC)ccc3c2OC(C)(C)C3)ccc1Cn1cccn1` [Example C45, 4-((1H-pyrazol-1-yl)methyl)-3-methoxy-N-((6-methoxy-2,2-dimethyl-2,3-dihydrobenzofuran-7-yl)sulfonyl)benzamide], the IC50 in assay [1] is no more than 5 nM; in assay [2] it was no more than 5 nM; in assay [3] (Homo sapiens, U2OS), no more than 10 nM.

Turning to `COc1ccc2c(c1S(=O)(=O)NC(=O)c1ccc(Cn3cccn3)c(OC)n1)OC1CC2C1` [Example C78, 5-((1H-pyrazol-1-yl)methyl)-6-methoxy-N-((7-methoxy-3,4-dihydro-2H-2,4-methanochroman-8-yl)sulfonyl)picolinamide], the IC50 in assay [1] is no more than 5 nM; in assay [2], no more than 5 nM; in assay [3] it was no more than 10 nM.

As for `COc1ccc2c(c1S(=O)(=O)NC(=O)c1ccc(Cn3cccn3)c(OC)n1)OCCC2(C)C` [Example C39, 5-((1H-pyrazol-1-yl)methyl)-6-methoxy-N-((7-methoxy-4,4-dimethylchroman-8-yl)sulfonyl)picolinamide], the IC50 in assay [1] is no more than 5 nM; in assay [2], no more than 5 nM; in assay [3] (Homo sapiens, U2OS), no more than 10 nM.

In the case of `COc1ccc(C(C)(C)C)nc1S(=O)(=O)NC(=O)c1ccc(Cn2ccc(N)n2)c(OC)n1` [Example C37, 5-((3-amino-1H-pyrazol-1-yl)methyl)-N-((6-(tert-butyl)-3-methoxypyridin-2-yl)sulfonyl)-6-methoxypicolinamide], the IC50 is no more than 5 nM in assay [1]; no more than 5 nM in assay [2]; no more than 10 nM in assay [3] (Homo sapiens, U2OS).

With `COc1ccc(C(C)(C)C)cc1S(=O)(=O)NC(=O)c1ccc(Cc2ccccn2)c(C)n1` [Example C35, N-((5-(tert-butyl)-2-methoxyphenyl)sulfonyl)-6-methyl-5-(pyridin-2-ylmethyl)picolinamide], the IC50 in assay [1] is no more than 5 nM; in assay [2] it was no more than 5 nM; in assay [3] (Homo sapiens, U2OS), no more than 10 nM.

On to `CCc1nc(C(=O)NS(=O)(=O)c2c(OC)ccc3c2OCC3(C)C)ccc1Cn1cccn1` [Example C53, 5-((1H-pyrazol-1-yl)methyl)-6-ethyl-N-((6-methoxy-3,3-dimethyl-2,3-dihydrobenzofuran-7-yl)sulfonyl)picolinamide], for which the IC50 in assay [1] is no more than 5 nM; in assay [2], no more than 5 nM; in assay [3] (Homo sapiens, U2OS) it was no more than 10 nM.

Turning to `COc1ccc(C(C)(C)C)nc1S(=O)(=O)NC(=O)c1ccc(Cn2cccn2)c(C2CCC2)c1` [Example C21, 4-((1H-pyrazol-1-yl)methyl)-N-((6-(tert-butyl)-3-methoxypyridin-2-yl)sulfonyl)-3-cyclobutyl-benzamide], the 50% inhibitory concentration (IC50) is no more than 5 nM in assay [1]; no more than 5 nM in assay [2]; no more than 10 nM in assay [3] (Homo sapiens, U2OS).

In the case of `COc1cc(C(=O)NS(=O)(=O)c2cc(C(C)(C)C)ccc2OC)ccc1Cn1cccn1` [Example C7, 4-((1H-pyrazol-1-yl)methyl)-N-((5-(tert-butyl)-2-methoxyphenyl)sulfonyl)-3-methoxybenzamide], the IC50 in assay [1] is no more than 5 nM; in assay [2], no more than 5 nM; in assay [3] (Homo sapiens, U2OS), no more than 10 nM.

As to `COc1cc(C(=O)NS(=O)(=O)c2nc(C(C)(C)C)ccc2OC)ccc1Cc1ccccn1` [Example C32, N-((6-(tert-butyl)-3-methoxypyridin-2-yl)sulfonyl)-3-methoxy-4-(pyridin-2-ylmethyl)benzamide], the IC50 is no more than 5 nM in assay [1]; no more than 5 nM in assay [2]; no more than 10 nM in assay [3] (Homo sapiens, U2OS).

Take `COc1ccc(C2(OC)CC2)cc1S(=O)(=O)NC(=O)c1ccc(Cn2cccn2)c(OC)n1` [Example C56, 5-((1H-pyrazol-1-yl)methyl)-6-methoxy-N-((2-methoxy-5-(1-methoxycyclopropyl)phenyl)sulfonyl)picolinamide]: the IC50 is no more than 5 nM in assay [1]; no more than 5 nM in assay [2]; no more than 10 nM in assay [3] (Homo sapiens, U2OS).

Regarding `COc1ccc(C(C)(C)C)nc1S(=O)(=O)NC(=O)c1ccc(Cn2cccn2)c(C(F)(F)F)c1` [Example C25, 4-((1H-pyrazol-1-yl)methyl)-N-((6-(tert-butyl)-3-methoxypyridin-2-yl)sulfonyl)-3-(trifluoromethyl)benzamide], the 50% inhibitory concentration (IC50) in assay [1] is no more than 5 nM; in assay [2], no more than 5 nM; in assay [3] (Homo sapiens, U2OS) it was no more than 10 nM.

Regarding `COc1ccc(C(C)(C)C)cc1S(=O)(=O)NC(=O)c1ccc(Cn2cccn2)c(C2CC2)n1` [Example C8, 5-((1H-pyrazol-1-yl)methyl)-N-((5-(tert-butyl)-2-methoxyphenyl)sulfonyl)-6-cyclopropyl-picolinamide], the IC50 was no more than 5 nM in assay [1]; no more than 5 nM in assay [2]; no more than 10 nM in assay [3] (Homo sapiens, U2OS).

With `COc1cc(C(=O)NS(=O)(=O)c2nc(C(C)(C)C)ccc2OC)ccc1Cn1ccc(C)n1` [Example C33, N-((6-(tert-butyl)-3-methoxypyridin-2-yl)sulfonyl)-3-methoxy-4-((3-methyl-1H-pyrazol-1-yl)methyl)benzamide], the half-maximal inhibitory concentration (IC50) in assay [1] is no more than 5 nM; in assay [2] it was no more than 5 nM; in assay [3] (Homo sapiens, U2OS), no more than 10 nM.

With `COc1ccc2c(c1S(=O)(=O)NC(=O)c1ccc(Cn3cccn3)c(OC)n1)OCC21CCOCC1` [Example C71, 5-((1H-pyrazol-1-yl)methyl)-6-methoxy-N-((6-methoxy-2′,3′,5′,6′-tetrahydro-2H-spiro[benzofuran-3,4′-pyran]-7-yl)sulfonyl) picolinamide], the IC50 in assay [1] was no more than 5 nM; in assay [2], no more than 5 nM; in assay [3] (Homo sapiens, U2OS), no more than 10 nM.

`CCc1cc(C(=O)NS(=O)(=O)c2c(OC)ccc3c2OC(C)(C)C3)ccc1Cn1cccn1` [Example C52, 4-((1H-pyrazol-1-yl)methyl)-3-ethyl-N-((6-methoxy-2,2-dimethyl-2,3-dihydrobenzofuran-7-yl)sulfonyl)benzamide]: the IC50 was no more than 5 nM in assay [1]; no more than 5 nM in assay [2]; no more than 10 nM in assay [3] (Homo sapiens, U2OS).

With `COc1ccc(C(C)(C)C)nc1S(=O)(=O)NC(=O)c1ccc(Cn2cccn2)c(C2CC2)n1` [Example C48, 5-((1H-pyrazol-1-yl)methyl)-N-((6-(tert-butyl)-3-methoxypyridin-2-yl)sulfonyl)-6-cyclopropylpicolinamide], the IC50 in assay [1] is no more than 5 nM; in assay [2], no more than 5 nM; in assay [3] (Homo sapiens, U2OS) it was no more than 10 nM.
